# Laboratory results reported in publication PMC2951135 (Journal of medicinal chemistry, 2010).
# Entries after “also recorded” stand apart in the source; their conditions may differ.
# How the values were obtained:
# [1] = Hydrolysis of ester 7 in monkey plasma; format: in vitro ADME, Cebus apella monkeys; conditions: Cebus apella monkey plasma, 37 °C, solubilized in DMSO
# [2] = Control incubation of ester 7 with saline in place of plasma; format: in vitro ADME; conditions: 37 °C, 1 or 2 h
# rats [3] = assay: Ten-day toxicity trial in rats; format: in vivo, Sprague-Dawley rats
# [4] = pH 7.4
# [5] = Hydrolysis of ester 7 in rat plasma; format: in vitro ADME; conditions: 37 °C, solubilized in DMSO
# rats [6] = assay: Tissue iron decorporation in rats after 10 days of dosing; format: in vivo, Sprague-Dawley rats
# [7] = system: non iron-overloaded, bile duct-cannulated rats; format: in vivo, Sprague-Dawley rats
# [8] = system: iron-overloaded C. apella primates; assay: Chelator-induced iron clearance in iron-overloaded primates; format: in vivo, Cebus apella monkeys
# [9] = clinical trial abandoned by Genzyme; cited from earlier work
# [10] = system: non iron-overloaded, bile duct-cannulated rats; conditions: po 300 μmol/kg; cited from earlier work
# [11] = cited from earlier work
# [12] = orally once daily 384 μmol/kg/d × 10 d
# [13] = po 75 μmol/kg by gavage as monosodium salt
compound,measurement,setting,value
"CCOC(=O)[C@@]1(C)CSC(c2ccc(OCCOCCOC)cc2O)=N1 [Compound 7, ethyl (S)-4,5-dihydro-2-[2-hydroxy-4-(3,6-dioxaheptyloxy)phenyl]-4-methyl-4-thiazolecarboxylate]",time for conversion of all of the ester to the active acid 6,[1],1 to 2 h
same,stability of the ester in saline,[2],all of the drug remained in the form of the ester
same,histopathology,rats [3]; [12],Mild to moderate vacuolar degeneration of the proximal tubular epithelial cells; also recorded: unacceptable renal toxicity
same,histopathology,rats [3]; orally once daily in capsules 192 μmol/kg/d × 10 d,no drug-related abnormalities
same,times more lipophilic than the parent 2,[4],"11,220 times"
same,time for conversion of all of the ester to the active acid 6,[5],1 to 2 h
same,decrease in cardiac iron vs untreated controls,"rats [6]; capsules, 192 μmol/kg/d × 10 d",Neither dose was associated with a reduction in pancreatic or cardiac iron content
same,reduction in pancreatic iron vs untreated controls,"rats [6]; capsules, 192 μmol/kg/d × 10 d",Neither dose was associated with a reduction in pancreatic or cardiac iron content
same,decrease in cardiac iron vs untreated controls,"rats [6]; capsules, 384 μmol/kg/d × 10 d",Neither dose was associated with a reduction in pancreatic or cardiac iron content
same,reduction in pancreatic iron vs untreated controls,"rats [6]; capsules, 384 μmol/kg/d × 10 d",Neither dose was associated with a reduction in pancreatic or cardiac iron content
"COCCOCCOc1ccc(C2=N[C@@](C)(C(=O)O)CS2)c(O)c1 [Compound 6, (S)-4,5-dihydro-2-[2-hydroxy-4-(3,6-dioxaheptyloxy)phenyl]-4-methyl-4-thiazolecarboxylic acid]",histopathology,rats [3]; [12],no obvious histopathologies; also recorded: cannot be reliably differentiated histologically from the tissues from rats in Group 2; also recorded: no histological abnormalities noted between the treated and the control groups
same,Rodent Iron-Clearing Efficiency,"[7]; po 300 μmol/kg in capsules, 48 h sample collection period",> 26%
same,reduction in pancreatic iron vs untreated controls,"rats [6]; capsules, 384 μmol/kg/d × 10 d",not when it was dosed in capsules
same,reduction in pancreatic iron vs untreated controls,"rats [6]; gavage as sodium salt, 384 μmol/kg/d × 10 d",significant reduction in pancreatic iron
same,Primate Iron-Clearing Efficiency,[8]; [13],28.7 ± 12.4%
same,relative percentage of the iron excreted in the urine (primates),[8]; [13],17%
same,Primate Iron-Clearing Efficiency,[8]; po 75 μmol/kg in capsules,> 26%
same,relative percentage of the iron excreted in the feces (primates),[8]; po 75 μmol/kg in capsules,93%
same,Performance Ratio (mean ICEprimates/ICErodents),"[8]; primates given the monosodium salt by gavage, rodents capsules",1.1
"C[C@]1(C(=O)[O-])CSC(c2ccc(O)cc2O)=N1.[Na+] [Compound 2, (S)-2-(2,4-dihydroxyphenyl)-4,5-dihydro-4-methyl-4-thiazolecarboxylic acid]",toxicity that led to abandonment of the clinical trial,[9],nephrotoxicity; also recorded: renal toxicity
same,relative percentage of the iron excreted in the bile (rodents),[10],100%
same,relative percentage of the iron excreted in the urine (rodents),[10],0%
"C[C@]1(C(=O)O)CSC(c2ncccc2O)=N1 [Compound 1, (S)-4,5-dihydro-2-(3-hydroxy-2-pyridinyl)-4-methyl-4-thiazolecarboxylic acid]",nephrotoxicity,[11],severely nephrotoxic
"COCCOCCOCCOCCOc1ccc(C2=N[C@@](C)(C(=O)[O-])CS2)c(O)c1.[Na+] [Compound 5, (S)-4,5-dihydro-2-[2-hydroxy-4-(3,6,9,12-tetraoxatridecyloxy)phenyl]-4-methyl-4-thiazolecarboxylic acid]",ICE in rodents relative to the parent 2,[7]; po 300 μmol/kg,~11 times
"COc1ccc(C2=N[C@@](C)(C(=O)[O-])CS2)c(O)c1.[Na+] [Compound 3, (S)-4,5-dihydro-2-(2-hydroxy-4-methoxyphenyl)-4-methyl-4-thiazolecarboxylic acid]",nephrotoxicity,[11],very nephrotoxic; also recorded: unacceptably nephrotoxic
same,relative percentage of the iron excreted in the bile (rodents),[10],98%
same,relative percentage of the iron excreted in the urine (rodents),[10],2%
"COCCOCCOCCOc1ccc(C2=N[C@@](C)(C(=O)O)CS2)c(O)c1 [Compound 4, (S)-4,5-dihydro-2-[2-hydroxy-4-(3,6,9-trioxadecyloxy)phenyl]-4-methyl-4-thiazolecarboxylic acid]",nephrotoxicity,[11],virtually absent of any nephrotoxicity
same,relative percentage of the iron excreted in the bile (rodents),[10],90%
same,relative percentage of the iron excreted in the urine (rodents),[10],10%
same,ICE in primates relative to the longer analogue 5,"[8]; monkey, in vivo",2.5
